# Laboratory results: patent US12428430B2 (BRISTOL-MYERS SQUIBB COMPANY, priority 2018, dated 2025)
# Biological target: hLPA1 (Homo sapiens, UniProt Q92633)
# Experiment: LPA1 functional antagonist assay (LPA-induced calcium flux in CHO cells overexpressing human LPA1)
# Type: cell-based
# Set-up: expressed in transfected cells; host or cells: Chinese hamster ovary (CHO) cells
# Settings: antagonist mode, inhibition of calcium flux induced by 10 nM LPA, read-out: hLPA1 IC50
# Experimental: The effectiveness of compounds of the present invention as LPA1 inhibitors can be determined in an LPA1 functional antagonist assay as follows:
# Chinese hamster ovary cells overexpressing human LPA1 were plated overnight (15,000 cells/well) in poly-D-lysine coated 384-well microplates (Greiner bio-one, Cat #781946) in DMEM/F12 medium (Gibco, Cat #11039). Following overnight culture, cells were loaded with calcium indicator dye (AAT Bioquest Inc, Cat #34601) for 30 minutes at 37° C. The cells were then equilibrated to room temperature for 30 minutes before the assay. Test compounds solubilized in DMSO were transferred to 384 well non-binding surface plates (Corning, Cat #3575) using the Labcyte Echo acoustic dispense and diluted with assay buffer [1×HBSS with calcium/magnesium (Gibco Cat #14025-092), 20 mM HEPES (Gibco Cat #15630-080) and 0.1% fatty acid free BSA (Sigma Cat #A9205)] to a final concentration of 0.5% DMSO. Diluted compounds were added to the cells by FDSS6000 (Hamamatsu) at final concentrations ranging from 0.08 nM to 5 μM. and were then incubated for 20 min at room temperature at which time LPA (Avanti Polar Lipids Cat #857130C) was added at final concentrations of 10 nM to stimulate the cells. The compound IC50 value was defined as the concentration of test compound which inhibited 50% of the calcium flux induced by LPA alone. IC50 values were determined by fitting data to a 4-parameter logistic equation (GraphPad Prism, San Diego Calif.).
# Sequence of hLPA1 (Q92633 whole entry): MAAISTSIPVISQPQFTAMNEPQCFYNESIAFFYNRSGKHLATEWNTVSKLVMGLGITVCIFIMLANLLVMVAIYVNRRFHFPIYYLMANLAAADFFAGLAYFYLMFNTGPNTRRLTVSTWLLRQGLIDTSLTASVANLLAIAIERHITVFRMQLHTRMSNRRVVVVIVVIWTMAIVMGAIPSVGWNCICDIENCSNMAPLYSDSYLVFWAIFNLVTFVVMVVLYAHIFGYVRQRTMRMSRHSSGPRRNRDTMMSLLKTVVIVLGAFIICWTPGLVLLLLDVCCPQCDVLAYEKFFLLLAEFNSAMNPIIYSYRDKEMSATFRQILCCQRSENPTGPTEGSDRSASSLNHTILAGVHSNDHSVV
row,Molecule,IC50 [µM]
1,Cc1noc(-c2ccc(C34CCC(CC(=O)O)(CC3)OC4)cc2)c1NC(=O)OC(C)c1ccc(Cl)cc1 (racemic) [Example 14],0.117
2,"C[C@@H](OC(=O)Nc1c(-c2ccc(C34CCC(CC(=O)O)(CC3)OC4)cc2)cnn1CC1CC1)c1ccccc1 [Example 10, (R)-2-(4-(4-(1-(cyclopropylmethyl)-5-(((1-phenylethoxy)carbonyl)amino)-1H-pyrazol-4-yl)phenyl)-2-oxabicyclo[2.2.2]octan-1-yl)acetic acid]",0.422
3,"Cc1noc(-c2ccc(C34CCC(CC(=O)O)(CC3)OC4)cc2)c1NC(=O)O[C@H](C)C1CC1 [Example 11, 2-(4-(4-(4-((((R)-1-cyclopropyl-ethoxy)carbonyl)amino)-3-methylisoxazol-5-yl)phenyl)-2-oxabicyclo[2.2.2]octan-1-yl)acetic acid]",0.194
4,2-(4-(4-(4 2-(4-(4-(4-((((cyclobutyl-methyl)carbamoyl)oxy)methyl)-3-methylisoxazol-5-yl)phenyl)-2-oxabicyclo[2.2.2]octan-1-yl)acetic acid [Example 35],0.655
5,"Cc1noc(-c2ccc(C34CCC(CC(=O)O)(CC3)OC4)c(F)c2)c1NC(=O)O[C@H](C)C1CC1 [Example 16, 2-(4-(4-(4-((((R)-1-cyclopropylethoxy)carbonyl)amino)-3-methylisoxazol-5-yl)-2-fluorophenyl)-2-oxabicyclo[2.2.2]octan-1-yl)acetic acid]",0.407
6,"C[C@@H](OC(=O)Nc1c(-c2ccc(C34CCC(CC(=O)O)(CC3)OC4)cc2)cnn1C)c1ccccc1 [Example 2, 2-(4-(4-(1-methyl-5-((((R)-1-phenylethoxy)carbonyl)amino)-1H-pyrazol-4-yl)phenyl)-2-oxabicyclo[2.2.2]octan-1-yl)acetic acid]",0.088
7,"Cc1ccccc1[C@@H](C)OC(=O)Nc1c(C)noc1-c1ccc(C23CCC(CC(=O)O)(CC2)OC3)cc1 [Example 13, 2-(4-(4-(3-methyl-4-((((R)-1-(o-tolyl)ethoxy)carbonyl)amino)isoxazol-5-yl)phenyl)-2-oxabicyclo[2.2.2]octan-1-yl)acetic acid]",0.184
8,"C[C@@H](OC(=O)Nc1c(-c2ccc(C34CCC(CCC(=O)O)(CC3)OC4)cc2)nnn1C)c1ccccc1 [Example 7, 3-(4-(4-(1-methyl-5-((((R)-1-phenylethoxy)carbonyl)amino)-1H-1,2,3-triazol-4-yl)phenyl)-2-oxabicyclo[2.2.2]octan-1-yl)propanoic acid]",0.264
9,"Cc1ccccc1[C@@H](C)OC(=O)Nc1c(C)noc1-c1ccc(C23CCC(CC(=O)O)(CC2)OC3)c(F)c1 [Example 17, 2-(4-(2-fluoro-4-(3-methyl-4-((((R)-1-(o-tolyl)ethoxy)carbonyl)amino)isoxazol-5-yl)phenyl)-2-oxabicyclo[2.2.2]octan-1-yl)acetic acid]",0.119

# Results, then the molecule that gave them:
row,IC50 [µM],Molecule
1,0.134,"Cc1noc(-c2ccc(C34CCC(CC(=O)O)(CC3)CO4)cc2)c1NC(=O)O[C@H](C)c1ccccc1F [Example 52, 2-(1-(4-(4-((((R)-1-(2-fluorophenyl)ethoxy)carbonyl)amino)-3-methyl-isoxazol-5-yl)phenyl)-2-oxabicyclo[2.2.2]octan-4-yl)acetic acid]"
2,0.583,"Cc1noc(-c2ccc(C34CCC(CC(=O)O)(CC3)CO4)cc2)c1NC(=O)O[C@H](C)C1CC1 [Example 47, 2-(1-(4-(4-((((R)-1-cyclopropylethoxy)carbonyl)amino)-3-methylisoxazol-5-yl)phenyl)-2-oxabicyclo[2.2.2]octan-4-yl)acetic acid]"
3,1.14,"CC(OC(=O)Nc1c(-c2ccc(C34CCC(CC(=O)O)(CC3)OC4)c(F)c2)cnn1C)c1ccc(Cl)cc1 (racemic) [Example 29, (±)-2-(4-(4-(5-(((1-(4-chlorophenyl)ethoxy)carbonyl)amino)-1-methyl-1H-pyrazol-4-yl)-2-fluorophenyl)-2-oxabicyclo[2.2.2]octan-1-yl)acetic acid]"
4,0.692,"Cc1noc(-c2ccc(C34CCC(CC(=O)O)(CC3)OC4)c(F)c2)c1NC(=O)OC(C)c1cccc(Cl)c1 (racemic) [Example 19, (±)-2-(4-(4-(4-(((1-(3-chlorophenyl)ethoxy)carbonyl)amino)-3-methyl-isoxazol-5-yl)-2-fluorophenyl)-2-oxabicyclo[2.2.2]octan-1-yl)acetic acid]"
5,0.185,"Cc1cc(C23CCC(CC(=O)O)(CC2)OC3)ccc1-c1onc(C)c1NC(=O)O[C@H](C)c1ccccc1Cl [Example 27, 2-(4-(4-(4-((((R)-1-(2-chlorophenyl)ethoxy)carbonyl)amino)-3-methyl-isoxazol-5-yl)-3-methylphenyl)-2-oxabicyclo[2.2.2]octan-1-yl)acetic acid]"
6,0.095,"Cc1noc(-c2ccc(C34CCC(CC(=O)O)(CC3)OC4)cc2F)c1NC(=O)O[C@H](C)c1ccccc1 [Example 21, 2-(4-(3-fluoro-4-(3-methyl-4-((((R)-1-phenylethoxy)carbonyl)amino)isoxazol-5-yl)phenyl)-2-oxabicyclo[2.2.2]octan-1-yl)acetic acid]"
7,0.092,"Cc1cc(C23CCC(CC(=O)O)(CC2)OC3)ccc1-c1onc(C)c1NC(=O)O[C@H](C)c1ccccc1C (racemic) [Example 26, (±)-2-(4-(3-methyl-4-(3-methyl-4-((((R)-1-(o-tolyl)ethoxy)carbonyl)amino)isoxazol-5-yl)phenyl)-2-oxabicyclo[2.2.2]octan-1-yl)acetic acid]"
8,0.098,"Cc1ccccc1[C@@H](C)OC(=O)Nc1c(C)noc1-c1ccc(C23CCC(CC(=O)O)(CC2)OC3)cc1F [Example 23, 2-(4-(3-fluoro-4-(3-methyl-4-((((R)-1-(o-tolyl)ethoxy)carbonyl)amino)isoxazol-5-yl)phenyl)-2-oxabicyclo[2.2.2]octan-1-yl)acetic acid]"
9,0.056,"Cc1noc(-c2ccc(C34CCC(CC(=O)O)(CC3)OC4)c(F)c2)c1NC(=O)O[C@H](C)c1ccccc1Cl [Example 18, 2-(4-(4-(4-((((R)-1-(2-chlorophenyl)ethoxy)carbonyl)amino)-3-methyl-isoxazol-5-yl)-2-fluorophenyl)-2-oxabicyclo[2.2.2]octan-1-yl)acetic acid]"
10,0.354,"Cc1noc(-c2ccc(C34CCC(CC(=O)O)(CC3)CO4)cc2)c1NC(=O)O[C@H](C)c1ccccc1Cl [Example 48, 2-(1-(4-(4-((((R)-1-(2-chlorophenyl)ethoxy)carbonyl)amino)-3-methyl-isoxazol-5-yl)phenyl)-2-oxabicyclo[2.2.2]octan-4-yl)acetic acid]"
11,0.232,"CN(C(=O)OCc1c(-c2ccc(C34CCC(CC(=O)O)(CC3)OC4)c(F)c2)cnn1C)C1CCCC1 [Example 42, 2-(4-(4-(5-(((cyclopentyl(methyl)carbamoyl)oxy)methyl)-1-methyl-1H-pyrazol-4-yl)-2-fluorophenyl)-2-oxabicyclo[2.2.2]octan-1-yl)acetic acid]"
12,0.863,"Cc1noc(-c2ccc(C34CCC(CC(=O)O)(CC3)OC4)cc2F)c1NC(=O)O[C@H](C)C1CC1 [Example 20, 2-(4-(4-(4-((((R)-1-cyclopropylethoxy)carbonyl)amino)-3-methylisoxazol-5-yl)-3-fluorophenyl)-2-oxabicyclo[2.2.2]octan-1-yl)acetic acid]"
